Assay results: article PMC8037182, “Solvothermal Synthesis of Multiple Dihydropyrimidinones at a Time as Inhibitors of Eg5” (Molecules, 2021)
Where “and” joins values, the source holds several entries; their conditions need not be identical. Identical values can stand only once.

Columns and labels:
Hela cell line = experiment: Cytotoxicity MTS assay, Hela cell line; format: cell-based; conditions: for OD490 Mean / OD490 Well 1 / OD490 Well 2 / OD490 Well 3: Hela cell line; for IC50: MTS assay, 24 h exposure
Protocol: (§1) The positive compounds (IC50 < 100 μM) obtained from the primary Eg5 motor protein ATPase assay were tested for antiproliferative activity in vitro against Caco-2 cell line, Hela cell line, L929 cell line and T24 cell line by performing MTS assay. Cells were introduced into 96-well plates at a density of 1000 cells per well. After 24 h incubation, the cells were exposed with compounds at final concentrations ranging from 0.5 to 100 µM for 24 h. DMSO was used at a final concentration of 0.025% as blank control, monastrol was used as the positive control. Then 20 µL (CellTiter 96® AQueous One Solution Promega, Madison, WI, USA) reagent was added in each well. After 2 h at 37 °C in a 80% humidified, 5% CO2 atmosphere, the absorbance at 490 nm was recorded using a microplate reader (BIO-RAD iMark^TM). The results were obtained in three independent duplicate experiments. The primary data were shown in Supplementary Materials Tables S4–S7. The IC50 values for these compounds were calculated from a non-linear regression graph plotted between the percentage of cell viability and concentration with SPSS17.0 software.

L929 cell line = experiment: Cytotoxicity MTS assay, L929 cell line; format: cell-based; conditions: for OD490 values, Mean / OD490 values, Well 1 / OD490 values, Well 2 / OD490 values, Well 3 / OD490, single wells / OD490 Mean: L929 cell line; for OD490, single wells / OD490 Mean: MTS; for OD490, single wells: Well 1-3; for OD490 Mean: mean of 3 wells
Protocol: as §1

CCOC(=O)C1=C(C)NC(=S)NC1c1cccc(O)c1 (stereo not drawn) [Monastrol, monastrol, reference compound]
OD490 Mean (Hela cell line; 0.5μM, first assay): 2.4571 | OD490 Well 1 (Hela cell line; 0.5μM, first assay): 2.3556 | OD490 Well 2 (Hela cell line; 0.5μM, first assay): 2.5698 | OD490 Well 3 (Hela cell line; 0.5μM, first assay): 2.4458 | OD490 Mean (Hela cell line; 0.5μM, second assay): 2.6032 | OD490 Well 1 (Hela cell line; 0.5μM, second assay): 2.5874 | OD490 Well 2 (Hela cell line; 0.5μM, second assay): 2.6523 | OD490 Well 3 (Hela cell line; 0.5μM, second assay): 2.5698 | OD490 Mean (Hela cell line; 0.5μM, third assay): 2.6247 | OD490 Well 1 (Hela cell line; 0.5μM, third assay): 2.6417 | OD490 Well 2 (Hela cell line; 0.5μM, third assay): 2.5470 | OD490 Well 3 (Hela cell line; 0.5μM, third assay): 2.6854 | OD490 Mean (Hela cell line; 1μM, first assay): 2.1630 | OD490 Well 1 (Hela cell line; 1μM, first assay): 2.3365 | OD490 Well 2 (Hela cell line; 1μM, first assay): 2.0131 | OD490 Well 3 (Hela cell line; 1μM, first assay): 2.1393 | OD490 Mean (Hela cell line; 1μM, second assay): 2.5460 | OD490 Well 1 (Hela cell line; 1μM, second assay): 2.5687 | OD490 Well 2 (Hela cell line; 1μM, second assay): 2.5478 | OD490 Well 3 (Hela cell line; 1μM, second assay): 2.5214 | OD490 Mean (Hela cell line; 1μM, third assay): 2.5064 | OD490 Well 1 (Hela cell line; 1μM, third assay): 2.5748 | OD490 Well 2 (Hela cell line; 1μM, third assay): 2.5214 | OD490 Well 3 (Hela cell line; 1μM, third assay): 2.4230 | OD490 Mean (Hela cell line; 10μM, first assay): 2.2162 | OD490 Well 1 (Hela cell line; 10μM, first assay): 2.1607 | OD490 Well 2 (Hela cell line; 10μM, first assay): 2.2561 | OD490 Well 3 (Hela cell line; 10μM, first assay): 2.2317 | OD490 Mean (Hela cell line; 10μM, second assay): 2.5812 | OD490 Well 1 (Hela cell line; 10μM, second assay): 2.6541 | OD490 Well 2 (Hela cell line; 10μM, second assay): 2.5541 | OD490 Well 3 (Hela cell line; 10μM, second assay): 2.5354 | OD490 Mean (Hela cell line; 10μM, third assay): 2.5198 | OD490 Well 1 (Hela cell line; 10μM, third assay): 2.6510 | OD490 Well 2 (Hela cell line; 10μM, third assay): 2.2561 | OD490 Well 3 (Hela cell line; 10μM, third assay): 2.6524 | OD490 Mean (Hela cell line; 25μM, first assay): 2.2546 | OD490 Well 1 (Hela cell line; 25μM, first assay): 2.1835 | OD490 Well 2 (Hela cell line; 25μM, first assay): 2.2875 | OD490 Well 3 (Hela cell line; 25μM, first assay): 2.2928 | OD490 Mean (Hela cell line; 25μM, second assay): 2.5253 | OD490 Well 1 (Hela cell line; 25μM, second assay): 2.6854 | OD490 Well 2 (Hela cell line; 25μM, second assay): 2.3365 | OD490 Well 3 (Hela cell line; 25μM, second assay): 2.5541 | OD490 Mean (Hela cell line; 25μM, third assay): 2.5000 | OD490 Well 1 (Hela cell line; 25μM, third assay): 2.5874 | OD490 Well 2 (Hela cell line; 25μM, third assay): 2.2584 | OD490 Well 3 (Hela cell line; 25μM, third assay): 2.6541 | OD490 Mean (Hela cell line; 50μM, first assay): 2.5586 | OD490 Well 1 (Hela cell line; 50μM, first assay): 2.7188 | OD490 Well 2 (Hela cell line; 50μM, first assay): 2.4306 | OD490 Well 3 (Hela cell line; 50μM, first assay): 2.5263 | OD490 Mean (Hela cell line; 50μM, second assay): 2.4511 | OD490 Well 1 (Hela cell line; 50μM, second assay): 2.3541 | OD490 Well 2 (Hela cell line; 50μM, second assay): 2.5478 | OD490 Well 3 (Hela cell line; 50μM, second assay): 2.4514 | OD490 Mean (Hela cell line; 50μM, third assay): 2.6173 | OD490 Well 1 (Hela cell line; 50μM, third assay): 2.5412 | OD490 Well 2 (Hela cell line; 50μM, third assay): 2.6521 | OD490 Well 3 (Hela cell line; 50μM, third assay): 2.6587 | OD490 Mean (Hela cell line; 100μM, first assay): 2.2182 | OD490 Well 1 (Hela cell line; 100μM, first assay): 2.3464 | OD490 Well 2 (Hela cell line; 100μM, first assay): 2.1470 | OD490 Well 3 (Hela cell line; 100μM, first assay): 2.1612 | OD490 Mean (Hela cell line; 100μM, second assay): 2.5306 | OD490 Well 1 (Hela cell line; 100μM, second assay): 2.4236 | OD490 Well 2 (Hela cell line; 100μM, second assay): 2.6540 | OD490 Well 3 (Hela cell line; 100μM, second assay): 2.5142 | OD490 Mean (Hela cell line; 100μM, third assay): 2.4597 | OD490 Well 1 (Hela cell line; 100μM, third assay): 2.3654 | OD490 Well 2 (Hela cell line; 100μM, third assay): 2.5784 | OD490 Well 3 (Hela cell line; 100μM, third assay): 2.4352 | IC50 (Hela cell line; Homo sapiens, HeLa, 24 h): > 150 µM | IC50 (Hela cell line): > 150 µM | OD490 values, Mean (L929 cell line; 50μM, first assay): 1.3431 | OD490 values, Well 1 (L929 cell line; 50μM, first assay): 1.3844 | OD490 values, Well 2 (L929 cell line; 50μM, first assay): 1.2943 | OD490 values, Well 3 (L929 cell line; 50μM, first assay): 1.3505 | OD490 values, Mean (L929 cell line; 50μM, second assay): 1.3490 | OD490 values, Well 1 (L929 cell line; 50μM, second assay): 1.3355 | OD490 values, Well 2 (L929 cell line; 50μM, second assay): 1.2894 | OD490 values, Well 3 (L929 cell line; 50μM, second assay): 1.4221 | OD490 values, Mean (L929 cell line; 50μM, third assay): 1.5704 | OD490 values, Well 1 (L929 cell line; 50μM, third assay): 1.5524 | OD490 values, Well 2 (L929 cell line; 50μM, third assay): 1.4714 | OD490 values, Well 3 (L929 cell line; 50μM, third assay): 1.6874 | OD490 values, Mean (L929 cell line; 100μM, first assay): 1.0251 | OD490 values, Well 1 (L929 cell line; 100μM, first assay): 1.0639 | OD490 values, Well 2 (L929 cell line; 100μM, first assay): 1.0037 | OD490 values, Well 3 (L929 cell line; 100μM, first assay): 1.0076 | OD490 values, Mean (L929 cell line; 100μM, second assay): 1.2469 | OD490 values, Well 1 (L929 cell line; 100μM, second assay): 1.2354 | OD490 values, Well 2 (L929 cell line; 100μM, second assay): 1.2789 | OD490 values, Well 3 (L929 cell line; 100μM, second assay): 1.2265 | OD490 values, Mean (L929 cell line; 100μM, third assay): 1.4401 | OD490 values, Well 1 (L929 cell line; 100μM, third assay): 1.4541 | OD490 values, Well 2 (L929 cell line; 100μM, third assay): 1.4710 | OD490 values, Well 3 (L929 cell line; 100μM, third assay): 1.3952 | OD490, single wells (L929 cell line; 1μM, first assay): 1.2759 and 1.1464 and 1.2212 | OD490 Mean (L929 cell line; 1μM, first assay): 1.2145 | OD490, single wells (L929 cell line; 1μM, second assay): 1.3847 and 1.2145 and 1.3654 | OD490 Mean (L929 cell line; 1μM, second assay): 1.3215 | OD490, single wells (L929 cell line; 1μM, third assay): 1.5474 and 1.5368 and 1.4987 | OD490 Mean (L929 cell line; 1μM, third assay): 1.5276 | OD490, single wells (L929 cell line; 1.5μM, first assay): 1.1568 and 1.0812 and 1.2095 | OD490 Mean (L929 cell line; 1.5μM, first assay): 1.1492 | OD490, single wells (L929 cell line; 1.5μM, second assay): 1.2478 and 1.3254 and 1.2897 | OD490 Mean (L929 cell line; 1.5μM, second assay): 1.2876 | OD490, single wells (L929 cell line; 1.5μM, third assay): 1.5823 and 1.5874 and 1.5332 | OD490 Mean (L929 cell line; 1.5μM, third assay): 1.5676 | OD490, single wells (L929 cell line; 10μM, first assay): 1.1741 and 1.1023 and 1.0651 | OD490 Mean (L929 cell line; 10μM, first assay): 1.1138 | OD490, single wells (L929 cell line; 10μM, second assay): 1.3582 and 1.6874 and 1.3354 | OD490 Mean (L929 cell line; 10μM, second assay): 1.4603 | OD490, single wells (L929 cell line; 10μM, third assay): 1.4784 and 1.4585 and 1.6874 | OD490 Mean (L929 cell line; 10μM, third assay): 1.5414 | OD490, single wells (L929 cell line; 25μM, first assay): 1.2192 and 1.1415 and 1.0377 | OD490 Mean (L929 cell line; 25μM, first assay): 1.1328 | OD490, single wells (L929 cell line; 25μM, second assay): 1.2214 and 1.3652 | OD490 Mean (L929 cell line; 25μM, second assay): 1.3173 | OD490, single wells (L929 cell line; 25μM, third assay): 1.6324 and 1.5241 and 1.7241 | OD490 Mean (L929 cell line; 25μM, third assay): 1.6269 | IC50 (L929 cell line; Mus musculus, L929, MTS assay, 24 h exposure, ordinary fibroblast, not cancer cells): > 150 µM
